{
  "source": "patent US20160122758A1",
  "about": "“AGENTS FOR DOWNREGULATION OF THE ACTIVITY AND/OR AMOUNT OF BCL-XL AND/OR BCL-W” (YEDA RESEARCH AND DEVELOPMENT CO. LTD., priority 2013, published 2016)",
  "key": {"[1]": {"tested_on": "senescent IMR-90 or MEF cells", "test": "Viability assay, ABT-199 alone on senescent IMR-90 or MEF cells", "assay_type": "cell-based, human, mouse", "settings": "ABT-199 for 24 hours", "protocol": "(§1) Human primary fibroblasts (IMR-90, BJ) were obtained from ATCC MEFs were prepared from day 13.5 embryos. All cultures were maintained in DMEM supplemented with 10% fetal bovine serum (Hyclone). Senescence was induced by treatment with Etoposide ([…], Sigma), or the introduction of oncogenic H-ras^v12 using infections into IMR-90 cells (as described by Narita, 2003).\n(§2) Growing and senescent cells were plated in 12-well plates at 7.5×10^4 cells per well. The following day, cells were treated with DMSO control, ABT-737 (Selleckchem, USA) or ABT-199 (ChemieTek, USA) and cell viability was analyzed 24 hours thereafter. 300 μl of PrestoBlue Reagent (Invitrogen, USA) were added to each well, and plates were incubated for 20 minutes at 37 C. 100 μl samples were taken in duplicates to a 96 well plate and read at an OD of 540 nm using a Tecan plate reader (Infinite® M200). A three-hour pre incubation with 100 μM z-VAD-fmk (Santa Cruz, USA) was performed prior to the addition of ABT-737 where indicated."}, "[2]": {"tested_on": "Etoposide treated senescent IMR-90 cells", "test": "Viability assay after siRNA transfection of Etoposide treated senescent IMR-90 cells", "assay_type": "cell-based, human", "settings": "10 μM ABT-199 for 24 hours, three days post siRNA transfection", "protocol": "as §1, §2\n(§3) ON-TARGETplus SMARTpool small-interfering RNAs targeting p21, Bcl-2, Bcl-w, Bcl-xL and the nontargeting pool siRNAs (control) were transfected into cells with the Dharmafect 1 reagent (all from Dharmacon, Lafayette, Colo., USA). siRNAs were washed away 24 hours post transfection and viability was analyzed four days thereafter as described above."}, "[3]": {"tested_on": "senescent IMR-90 cells", "test": "Viability assay, ABT-737 with or without z-VAD-fmk on IMR-90 cells", "assay_type": "cell-based, human", "protocol": "as §1, §2\nMembers of the Bcl-2 family negatively regulate apoptotic pathway (Azmi et al., 2011; Cory et al., 2003; Reed, 2008). To determine whether ABT-737 kills senescent cells via the apoptotic pathway, DNA damage induced senescent IMR-90 cells, oncogenic H-Ras^v12 induced senescent cells and control growing cells were treated with ABT-737 alone or in combination with pan-caspase inhibitor z-VAD-fmk. […]"}, "[4]": {"tested_on": "cleaved caspase-3", "test": "Immunoblot for cleaved caspase-3 in IMR-90 cells treated with ABT-737 with or without z-VAD-fmk", "assay_type": "cell-based, human", "protocol": "Cells were lysed in RIPA buffer. Equal amounts of protein were separated on 12% SDS-polyacrylamide gels and transferred to PVDF membranes. Detection was performed using the following antibodies: anti-Rb (9313), anti-cleaved parp (9541), anti-cleaved caspase-3 (9661), anti-phospho-p53 (9284), anti-mouse-p53 (2524), anti-phospho-NF-κB (3033), anti-Bcl-2 (2870), anti-Bcl-w (2724) and anti-Bcl-xL (2764) were purchased from Cell Signaling Technology. Anti-human p53 (DO1 and PAb1801). Anti-p16 (sc-759), anti-mouse-p21 (sc-397), anti-NFκB p65 (sc-372) and anti-α-Tubulin (sc-9104) were obtained from Santa Cruz Biotechnology. Anti-human-p21 (556431) was obtained from BD Pharmingen, Anti-Mcl-1 (1239-1) was obtained from Epitomics.\nas §2, with “indicated. […]” for “indicated.”"}, "[5]": {"tested_on": "senescent human (IMR-90) and mouse (MEF) fibroblasts", "test": "Viability assay, ABT-737 on senescent and control IMR-90 and MEF fibroblasts", "assay_type": "cell-based", "settings": "ABT-737 for 24 hours", "protocol": "as §1, §2\nTo further test the hypothesis that an increase in the levels of anti-apoptotic proteins Bcl-w and Bcl-xL could account for the apoptotic resistance of senescent cells by an independent approach, cells were treated with the pharmacological inhibitor of the Bcl-2 family of proteins, ABT-737 (Chauhan et al., 2007). […]"}, "[6]": {"tested_on": "Etoposide treated BJ cells", "test": "Viability assay after siRNA transfection, senescent BJ cells", "assay_type": "cell-based, human", "settings": "Etoposide treated BJ cells with sip21; z-VAD-fmk four days with daily replenishment", "protocol": "as §1, §2\nas §3, with “above. […]” for “above.”"}},
  "note": "Residues, ends and D or L forms follow the SMILES beside them. *: point of attachment. Cbz = O=C(OCc1ccccc1)*; CH2F = FC*",
  "data": [
    {"smiles": "CC1(C)CCC(CN2CCN(c3ccc(C(=O)NS(=O)(=O)c4ccc(NCC5CCOCC5)c([N+](=O)[O-])c4)c(Oc4cnc5[nH]ccc5c4)c3)CC2)=C(c2ccc(Cl)cc2)C1", "note": "[ABT-199]", "values": [
      {"measurement": "effect on viability of oncogenic H-ras^v12 induced senescent IMR-90 cells", "setting": "[1]", "result": "minor decrease in cell viability"},
      {"measurement": "effect on viability of senescent cells, Bcl-2 inhibition alone", "setting": "[1]; IMR-90 or MEF senescent cells", "result": "almost no effect"},
      {"measurement": "additive effect of Bcl-2 inhibition on top of Bcl-w and Bcl-xL knockdown on senescent cell viability", "setting": "[2]", "result": "statistically significant, but minor additive effect"}
    ]},
    {"smiles": "CN(C)CC[C@H](CSc1ccccc1)Nc1ccc(S(=O)(=O)NC(=O)c2ccc(N3CCN(Cc4ccccc4-c4ccc(Cl)cc4)CC3)cc2)cc1[N+](=O)[O-]", "note": "[ABT-737]", "values": [
      {"measurement": "death of senescent cells", "setting": "[3]; ABT-737 alone, 24 hours, DNA damage or H-Ras^v12 induced senescent IMR-90", "result": "induced death"},
      {"measurement": "caspase-3 cleavage", "setting": "[4]; senescent IMR-90 cells treated with ABT-737", "result": "caspase-3 cleavage"},
      {"measurement": "reduction of viability of senescent cells", "setting": "[5]; Etoposide or H-Ras^V12 induced senescent IMR-90 and MEF", "result": 50, "unit": "%"},
      {"measurement": "effect on viability of control cells", "setting": "[5]; growing, vehicle treated or vector transduced cells", "result": "minor effect"}
    ]},
    {"smiles": "COC(=O)C[C@H](NC(=O)[C@H](C)NC(=O)[C@@H](NC(=O)OCc1ccccc1)C(C)C)C(=O)CF", "note": "[z-VAD-fmk] (Cbz-Val-Ala-Asp(OMe)-CH2F)", "values": [
      {"measurement": "rescue of cell death caused by p21 knockdown", "setting": "[6]", "result": 20, "unit": "%"},
      {"measurement": "death of senescent cells following ABT-737 treatment, in presence of pan-caspase inhibitor", "setting": "[3]; 100 μM z-VAD-fmk three-hour pre incubation, then ABT-737", "result": "prevented death"},
      {"measurement": "caspase-3 cleavage after addition of z-VAD-fmk to ABT-737", "setting": "[4]; senescent IMR-90 cells, ABT-737 plus z-VAD-fmk", "result": "abolished this cleavage"}
    ]}
  ]
}
